Results taken from ChEMBL document CHEMBL1201862, “PubChem BioAssay data set” (2004).
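Following 48 hours of exposure in 96-well plates, responses at five concentrations were used to interpolate endpoints linearly. The concentration for 50% growth inhibition is given as GI50.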 The source made the active and inactive calls. No stated cut-off is given here; in the data, active = GI50 up to about 1.1 µM and inactive = higher.

What was measured:
Assay in all cases: growth of human tumour cells (NCI), 48 h
[1] = system: UO-31
[2] = system: HCT-116
[3] = system: NCI-H226
[4] = system: SN12C
[5] = system: A549
[6] = system: SR
[7] = system: RPMI-8226
[8] = system: OVCAR-8
[9] = system: HCT-15
[10] = system: K562
[11] = system: UACC-257
[12] = system: SK-OV-3
[13] = system: CCRF-CEM
[14] = system: ACHN
[15] = system: NCI-H522
[16] = system: DMS-273
[17] = system: OVCAR-3
[18] = system: SNB-19
[19] = system: A498
[20] = system: Hs-578T

| SMILES | GI50 [1] | GI50 [2] | GI50 [3] | GI50 [4] | GI50 [5] | GI50 [6] | GI50 [7] | GI50 [8] | GI50 [9] [µM] | GI50 [10] | GI50 [11] | GI50 [12] | GI50 [13] | GI50 [14] | GI50 [15] | GI50 [16] | GI50 [17] | GI50 [18] | GI50 [19] | GI50 [20] |
| --- | --- | --- | --- | --- | --- | --- | --- | --- | --- | --- | --- | --- | --- | --- | --- | --- | --- | --- | --- | --- |
| N#CCCC(C#N)(C#N)CCC#N | > 100 µM (inactive) | > 100 µM (inactive) | > 100 µM (inactive) | > 100 µM (inactive) | > 100 µM (inactive) | > 100 µM (inactive) | > 100 µM (inactive) | > 100 µM (inactive) | > 100 | > 100 µM (inactive) | > 100 µM (inactive) | > 100 µM (inactive) | > 10 µM (inactive) | > 100 µM (inactive) | > 100 µM (inactive) | > 100 µM (inactive) | > 100 µM (inactive) | > 100 µM (inactive) | – | – |
| S=P(N1CCCC1)(N1CC1)N1CC1 | > 100 µM (inactive) | > 100 µM (inactive) | > 100 µM (inactive) | > 100 µM (inactive) | > 100 µM (inactive) | 83.8 µM (inactive) | > 100 µM (inactive) | > 100 µM (inactive) | > 100 | > 100 µM (inactive) | > 100 µM (inactive) | > 100 µM (inactive) | 73.1 µM (inactive) | 71.6 µM (inactive) | 83.9 µM (inactive) | > 100 µM (inactive) | > 100 µM (inactive) | 84.1 µM (inactive) | > 100 µM (inactive) | – |
| CCC1(c2c(F)c(F)c(N)c(F)c2F)CCC(=O)NC1=O (configuration not stated) | > 100 µM (inactive) | > 100 µM (inactive) | > 100 µM (inactive) | – | > 100 µM (inactive) | > 100 µM (inactive) | > 100 µM (inactive) | > 100 µM (inactive) | > 100 | > 100 µM (inactive) | > 100 µM (inactive) | > 100 µM (inactive) | > 100 µM (inactive) | > 100 µM (inactive) | > 100 µM (inactive) | > 100 µM (inactive) | > 100 µM (inactive) | > 100 µM (inactive) | > 100 µM (inactive) | – |
| CO/S(=N/S(=O)(=O)c1ccccc1)c1ccccc1[N+](=O)[O-] (configuration not stated) | > 100 µM (inactive) | – | > 100 µM (inactive) | > 100 µM (inactive) | > 100 µM (inactive) | > 100 µM (inactive) | > 100 µM (inactive) | > 100 µM (inactive) | > 100 | > 100 µM (inactive) | > 100 µM (inactive) | > 100 µM (inactive) | > 100 µM (inactive) | > 100 µM (inactive) | > 100 µM (inactive) | > 100 µM (inactive) | > 100 µM (inactive) | > 100 µM (inactive) | – | – |
| CCP(C)(=O)CC | > 100 µM (inactive) | > 100 µM (inactive) | > 100 µM (inactive) | > 100 µM (inactive) | > 100 µM (inactive) | > 100 µM (inactive) | > 100 µM (inactive) | > 100 µM (inactive) | > 100 | > 100 µM (inactive) | > 100 µM (inactive) | > 100 µM (inactive) | > 100 µM (inactive) | > 100 µM (inactive) | – | > 100 µM (inactive) | > 100 µM (inactive) | > 100 µM (inactive) | – | – |
| CC(C)C(Sc1nc(-c2ccccc2)c(-c2ccccc2)[nH]1)C(=O)N/N=C/c1ccc(Cl)cc1 (configuration not stated) | 19.5 µM (inactive) | 15.8 µM (inactive) | 17.2 µM (inactive) | 17.5 µM (inactive) | 30.8 µM (inactive) | 32.4 µM (inactive) | 19.7 µM (inactive) | 19.7 µM (inactive) | 17.5 | – | 21 µM (inactive) | 27.2 µM (inactive) | 21.7 µM (inactive) | 31.9 µM (inactive) | 20.7 µM (inactive) | 18.2 µM (inactive) | 18.2 µM (inactive) | 36.9 µM (inactive) | 22 µM (inactive) | – |
| N#CC(NNC(=O)c1ccccc1O)c1ccc(O)cc1 (configuration not stated) | 2.3 µM (inactive) | 3.33 µM (inactive) | 3.21 µM (inactive) | 18.6 µM (inactive) | 2.74 µM (inactive) | 2.8 µM (inactive) | 10.2 µM (inactive) | 7.66 µM (inactive) | 8.63 | 3.1 µM (inactive) | 15.6 µM (inactive) | 6.44 µM (inactive) | 4.93 µM (inactive) | 2.33 µM (inactive) | 12.8 µM (inactive) | 3.32 µM (inactive) | 9.55 µM (inactive) | – | – | – |
| O=C1C=C(Br)C(=O)C12CCc1ccccc12 (configuration not stated) | 18.5 µM (inactive) | 10.5 µM (inactive) | 18.3 µM (inactive) | 17.3 µM (inactive) | 23.5 µM (inactive) | 3.27 µM (inactive) | 3.05 µM (inactive) | 14.9 µM (inactive) | 7.53 | 2.52 µM (inactive) | 19.4 µM (inactive) | 27.4 µM (inactive) | 2.66 µM (inactive) | 11.5 µM (inactive) | 3.36 µM (inactive) | 18.3 µM (inactive) | 18.5 µM (inactive) | 32.9 µM (inactive) | 4.61 µM (inactive) | 35.3 µM (inactive) |
| O=C(/C=N/O)Nc1cccc(Cl)c1I | 23.9 µM (inactive) | 53.6 µM (inactive) | > 100 µM (inactive) | 47.8 µM (inactive) | 46 µM (inactive) | 30.7 µM (inactive) | 30.6 µM (inactive) | 81.5 µM (inactive) | 79.1 | 53.5 µM (inactive) | 56.9 µM (inactive) | 28.5 µM (inactive) | 49.1 µM (inactive) | 57.4 µM (inactive) | 26.1 µM (inactive) | > 100 µM (inactive) | 30.1 µM (inactive) | 55.7 µM (inactive) | 27.7 µM (inactive) | – |
| COc1ccc(Cc2cc(OC)c(OC)c(OC)c2)cc1 | 0.766 µM (active) | 0.207 µM (active) | 0.923 µM (active) | 0.671 µM (active) | 0.417 µM (active) | 0.0436 µM (active) | 0.298 µM (active) | 0.504 µM (active) | 0.114 | 0.0665 µM (active) | 0.509 µM (active) | 0.308 µM (active) | 0.165 µM (active) | 0.771 µM (active) | 0.19 µM (active) | 0.104 µM (active) | 0.151 µM (active) | 0.324 µM (active) | 0.27 µM (active) | 0.215 µM (active) |
| CN(C)CC1CC/C(=C\c2ccc(O)cc2)C1=O (configuration not stated) | 12.9 µM (inactive) | 2 µM (inactive) | 10.4 µM (inactive) | 5.64 µM (inactive) | 19 µM (inactive) | 0.931 µM (active) | 1.02 µM (active) | 4.6 µM (inactive) | 2.21 | 0.975 µM (active) | 3.94 µM (inactive) | 18.4 µM (inactive) | 0.933 µM (active) | 3.51 µM (inactive) | 1.47 µM (inactive) | 3.3 µM (inactive) | 3.67 µM (inactive) | 16.9 µM (inactive) | 9.35 µM (inactive) | 7.11 µM (inactive) |
| Cc1nc2ccccc2nc1NS(=O)(=O)c1ccc(N)cc1 | > 100 µM (inactive) | – | > 100 µM (inactive) | > 100 µM (inactive) | > 100 µM (inactive) | > 100 µM (inactive) | > 100 µM (inactive) | > 100 µM (inactive) | > 100 | > 100 µM (inactive) | > 100 µM (inactive) | – | > 100 µM (inactive) | > 100 µM (inactive) | > 100 µM (inactive) | > 100 µM (inactive) | > 100 µM (inactive) | > 100 µM (inactive) | > 100 µM (inactive) | – |
| C#CCOCn1cnc2c(N)ncnc21 | > 100 µM (inactive) | > 100 µM (inactive) | > 100 µM (inactive) | > 100 µM (inactive) | > 100 µM (inactive) | > 100 µM (inactive) | > 100 µM (inactive) | > 100 µM (inactive) | – | > 100 µM (inactive) | > 100 µM (inactive) | > 100 µM (inactive) | > 100 µM (inactive) | > 100 µM (inactive) | > 100 µM (inactive) | > 100 µM (inactive) | > 100 µM (inactive) | > 100 µM (inactive) | > 100 µM (inactive) | – |
| CC1=CC2C(=O)N(c3ccccc3)C(=O)C2CC1n1[nH]c(=O)n(Cc2ccccc2)c1=O (configuration not stated) | > 100 µM (inactive) | > 100 µM (inactive) | > 100 µM (inactive) | > 100 µM (inactive) | > 100 µM (inactive) | > 100 µM (inactive) | – | > 100 µM (inactive) | > 100 | > 100 µM (inactive) | > 100 µM (inactive) | > 100 µM (inactive) | > 100 µM (inactive) | > 100 µM (inactive) | > 100 µM (inactive) | > 100 µM (inactive) | > 100 µM (inactive) | > 100 µM (inactive) | > 100 µM (inactive) | – |
| CN(CO)c1nc(N(C)CO)nc(N(C)CO)n1 [TRIMELAMOL] | 19 µM (inactive) | – | – | – | 12.8 µM (inactive) | 39.6 µM (inactive) | 3.98 µM (inactive) | 14.5 µM (inactive) | 9.89 | 18.7 µM (inactive) | – | 21.9 µM (inactive) | 5.78 µM (inactive) | 27.5 µM (inactive) | 20.9 µM (inactive) | 7.6 µM (inactive) | 27.7 µM (inactive) | 16.1 µM (inactive) | 23.7 µM (inactive) | 27.8 µM (inactive) |
| NC(Cc1ccc2oc3cc(=O)c4ccccc4c-3nc2c1)C(=O)O (configuration not stated) | 33.8 µM (inactive) | 36 µM (inactive) | 27.3 µM (inactive) | 16.4 µM (inactive) | 16.7 µM (inactive) | 16.6 µM (inactive) | 42.2 µM (inactive) | 37.4 µM (inactive) | 17.8 | 34.2 µM (inactive) | 20.5 µM (inactive) | > 100 µM (inactive) | 40.7 µM (inactive) | 55.7 µM (inactive) | 39.8 µM (inactive) | 22.4 µM (inactive) | 19.6 µM (inactive) | 22.3 µM (inactive) | 70.6 µM (inactive) | 11.7 µM (inactive) |
